Consider 18 compounds from patent US6495578B1, “Sulfonamide derivatives having oxadiazole rings” (Shionogi & Co., Ltd., priority 1999, dated 2002).

In one series the target is T1, MMP-2 (Homo sapiens, UniProt P08253).
T1 construct: purchased Calbiochem-Novabiochem International, Inc
T1 sequence (P08253 110-660): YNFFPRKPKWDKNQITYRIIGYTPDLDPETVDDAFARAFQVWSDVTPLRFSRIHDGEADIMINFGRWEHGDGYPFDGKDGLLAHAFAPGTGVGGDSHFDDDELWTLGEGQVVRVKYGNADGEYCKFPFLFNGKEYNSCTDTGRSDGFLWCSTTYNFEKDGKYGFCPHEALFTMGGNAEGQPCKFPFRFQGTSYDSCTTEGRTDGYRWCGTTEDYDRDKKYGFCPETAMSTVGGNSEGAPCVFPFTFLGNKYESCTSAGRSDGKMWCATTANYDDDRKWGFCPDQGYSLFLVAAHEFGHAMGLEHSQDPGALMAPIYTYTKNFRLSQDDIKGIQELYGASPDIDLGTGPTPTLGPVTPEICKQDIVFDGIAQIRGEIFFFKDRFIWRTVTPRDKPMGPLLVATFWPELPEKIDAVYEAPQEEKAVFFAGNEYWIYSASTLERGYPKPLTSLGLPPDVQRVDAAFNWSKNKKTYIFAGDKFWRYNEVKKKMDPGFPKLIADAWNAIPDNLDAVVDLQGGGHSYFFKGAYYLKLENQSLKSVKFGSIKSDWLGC
The series is described as follows: Assay for inhibitory activities on MMP-2 (fluorogenic coumarin-labelled peptide substrate). It counts as biochemical. The following applies: MMP-2 purchased from Calbiochem-Novabiochem; substrate MOCAc-Pro-Leu-Gly-Leu-A2Pr(DNP)-Ala-Arg-NH2. As for the experimental part:
MMP-2 was purchased from Calbiochem-Novabiochem International, Inc.
The enzymatic activity on MMP-2 was analyzed by the method described in “C. Graham Knight, Frances Willenbrock and Gillian Murphy: A novel coumarin-labelled peptide for sensitive continuous assays of the matrix metalloproteinases: FEBS LETT., 296, (1992), 263-266”. The substrate: MOCAc-Pro-Leu-Gly-Leu-A2Pr(DNP)-Ala-Arg-NH2 was purchased from Peptide Institute, Inc., Osaka, Japan.
The measurement of the inhibitory activities (IC50) was carried out by the following four methods;
A) Reaction with substrate, enzyme (MMPs) and inhibitor
B) Reaction with substrate and inhibitor, without enzyme
C) Reaction with substrate and enzyme (MMPs), without inhibitor
D) Reaction with substrate only
IC50 values were calculated by using the following formula and each fluorescence values of above four methods (A to D).
IC50 means the concentration required to inhibit 50% of the enzyme activity.

For `Cc1ccc(-c2nc(-c3ccc(S(=O)(=O)N[C@@H](C(=O)O)C(C)C)cc3)no2)cc1` [Compound A-1], the melting point lay within 208 to 209 °C. In addition, the IC50 on MMP-2 was found to be 4.62 nM.

On MMP-2, `Cc1ccc(-c2nc(-c3ccc(S(=O)(=O)N[C@@H](CC(C)C)C(=O)O)cc3)no2)cc1` [Compound A-67] gave an IC50 of 124 nM.

On to `CC(C)[C@@H](NS(=O)(=O)c1ccc(-c2noc(-c3ccc(F)cc3)n2)s1)C(=O)O` [Compound B-1], for which, on MMP-2, inhibition was half-maximal at 67.7 nM (IC50).

In the case of `CCc1ccc(-c2nc(-c3ccc(S(=O)(=O)N[C@@H](C(=O)O)C(C)C)s3)no2)cc1` [Compound B-2], inhibition against MMP-2 was half-maximal at 5.39 nM (IC50).

On to `O=C(O)[C@@H](Cc1ccccc1)NS(=O)(=O)c1ccc(-c2noc(-c3ccc(F)cc3)n2)s1` [Compound B-3], for which, at MMP-2, half-maximal inhibition (IC50) required 223 nM.

Compound `CCc1ccc(-c2nc(-c3ccc(S(=O)(=O)N[C@H](Cc4ccccc4)C(=O)O)s3)no2)cc1` [Compound B-4] gave an IC50 at MMP-2 of 17.8 nM.

Take `CCCc1ccc(-c2nc(-c3ccc(S(=O)(=O)N[C@H](Cc4ccccc4)C(=O)O)s3)no2)cc1` [Compound B-5]: the IC50 against MMP-2 amounted to 36.1 nM.

`Cc1ccc(-c2nc(-c3ccc(S(=O)(=O)N[C@H](Cc4ccccc4)C(=O)O)s3)no2)s1` [Compound B-6]: on MMP-2, 26.5 nM corresponded to half-maximal inhibition (IC50).

With `C[C@@H](NS(=O)(=O)c1ccc(-c2noc(-c3ccc(F)cc3)n2)s1)C(=O)O` [Compound B-7], the IC50 against MMP-2 was determined as 39.7 nM.

As to `CCc1ccc(-c2nc(-c3ccc(S(=O)(=O)N[C@H](C)C(=O)O)s3)no2)cc1` [Compound B-8], at MMP-2, the IC50 was found to be 2.9 nM.

Take `C[C@@H](NS(=O)(=O)c1ccc(-c2noc(-c3cccs3)n2)s1)C(=O)O` [Compound B-9]: the IC50 on MMP-2 worked out at 28 nM.

The compound `Cc1ccc(-c2nc(-c3ccc(S(=O)(=O)N[C@H](C)C(=O)O)s3)no2)s1` [Compound B-10] came in with an IC50 against MMP-2 of 6.29 nM.

`C[C@@H](NS(=O)(=O)c1ccc(-c2noc(-c3ccccn3)n2)s1)C(=O)O` [Compound B-11] returned an IC50 on MMP-2 of 614 nM.

In turn, `O=C(O)[C@@H](Cc1c[nH]c2ccccc12)NS(=O)(=O)c1ccc(-c2noc(-c3ccc(F)cc3)n2)s1` [Compound B-12] showed an IC50 on MMP-2 of 29 nM.

`CCc1ccc(-c2nc(-c3ccc(S(=O)(=O)N[C@H](Cc4c[nH]c5ccccc45)C(=O)O)s3)no2)cc1` [Compound B-13] showed an IC50 on MMP-2 of 4.08 nM.

In the case of `O=C(O)CNS(=O)(=O)c1ccc(-c2noc(-c3ccc(F)cc3)n2)s1` [Compound B-14], on MMP-2, 224 nM corresponded to half-maximal inhibition (IC50).

`Cc1ccc(-c2nc(-c3ccc(S(=O)(=O)NCC(=O)O)s3)no2)cc1` [Compound B-15] came in with an IC50 at MMP-2 of 39 nM.

With `CCc1ccc(-c2nc(-c3ccc(S(=O)(=O)NCC(=O)O)s3)no2)cc1` [Compound B-16], at MMP-2, the IC50 was determined as 12.6 nM.
